Patent US20030186817A1, “SUBSTITUTED 2,4-DIAMINO-1,3,5-TRIAZINES, PROCESSES FOR THEIR PREPARATION AND THEIR USE AS HERBICIDES AND PLANT GROWTH REGULATORS” (priority 1998, published 2003)

Key:
Assay type in all cases: in vivo
[1] = system: Cyperus iria and Echinocloa crus-galli; experiment: Action on weeds in rice (paddy rice conditions, visual rating); conditions: dammed height of water 2-3 cm, about three weeks after application; also: test concentration or dose not given here
Text: Typical rice weeds such as Echinocloa crus galli and Cyperus iria are cultivated in a greenhouse under paddy rice conditions ([…] height of water: 2-3 cm). After the treatment, the test plants are set up in a greenhouse under optimum growth conditions and are maintained in this way under these conditions throughout the test period. About three weeks after application, evaluation is made by visual rating of the damage to the plants by comparison with untreated controls.

[2] = system: Stellaria media, Amaranthus retroflexus, Sinapis avreuse, Avena fatura, Lolium multiflorum and Setaria viridis; experiment: Pre-emergence action against weeds (greenhouse pot test, visual rating); conditions: application rate of 3.0 kg or less of active substance per hectare, trial period of 3 to 4 weeks
Text: Seeds of mono- and dicotyledonous weed plants are placed in sandy loam soil in cardboard pots and covered with soil. The novel compounds, formulated as wettable powders or emulsion concentrates, are then applied to the surface of the soil cover in the form of an aqueous suspension or emulsion at an application rate of from 600 to 800 l of water/ha (converted), in various dosages. After the treatment, the pots are placed in a greenhouse and kept under good growth conditions for the weeds. After the test plants have emerged after a trial period of 3 to 4 weeks, the damage to the plants or the negative effect on emergence is rated visually by comparison with untreated controls. As shown by the test results, the novel compounds have good herbicidal pre-emergence activity against a broad spectrum of weed grasses and broad-leaved weeds.

[3] = system: Stellaria media, Amaranthus retroflexus, Sinapis avreuse, Avena fatura, Lolium multiflorum and Setaria viridis; experiment: Post-emergence action against weeds (greenhouse pot test, visual rating); conditions: three-leaf stage, application rate of 3.0 kg or less of active substance per hectare, 3 to 4 weeks in greenhouse
Protocol: Seeds of mono- and dicotyledonous weeds are placed in sandy loam soil in cardboard pots, covered with soil and cultivated in a greenhouse under good growth conditions. Two to three weeks after sowing, the test plants are treated at the three-leaf stage. The novel compounds, formulated as wettable powders or emulsion concentrates, are sprayed in various dosages onto the green parts of the plant at an application rate of from 600 to 8001 of water/ha (converted), and, after the test plants have remained in the greenhouse for 3 to 4 weeks under optimum growth conditions, the action of the preparations is rated visually by comparison with untreated controls. The novel compositions also have good post-emergence herbicidal activity against a broad spectrum of economically important weed grasses and broad-leaved weeds.

| Structure (SMILES) | herbicidal activity against rice weeds (visual rating of damage) [1] | herbicidal activity pre-emergence (damage to the plants or negative effect on emergence, rated visually) [2] | herbicidal activity post-emergence (rated visually) [3] |
| --- | --- | --- | --- |
| CC(CCOc1cccc(Cl)c1)Nc1nc(N)nc(C(C)(C)F)n1 (stereo not shown) [Example 299] | very good herbicidal activity | good and in most cases very good herbicidal activity | good and in most cases very good herbicidal activity |
| Cc1cccc(OCCC(C)Nc2nc(N)nc(C(C)(C)F)n2)c1 (stereo not shown) [Example 253] | very good herbicidal activity | good and in most cases very good herbicidal activity | good and in most cases very good herbicidal activity |
| CCC(CCOc1cccc(Cl)c1)Nc1nc(N)nc(C(C)(C)F)n1 (stereo not shown) [Example 380] | very good herbicidal activity | good and in most cases very good herbicidal activity | good and in most cases very good herbicidal activity |
| Cc1ccc(COCC(C)Nc2nc(N)nc(C(C)(C)F)n2)cc1 (stereo not shown) [Example 183] | very good herbicidal activity | good and in most cases very good herbicidal activity | good and in most cases very good herbicidal activity |
| CCC(COC(=O)c1ccccc1OC(C)=O)Nc1nc(N)nc(C(C)C)n1 (stereo not shown) [Example 46] | very good herbicidal activity | – | good and in most cases very good herbicidal activity |
| COc1cccc(OCCC(C)Nc2nc(N)nc(C(C)C)n2)c1 (stereo not shown) [Example 213] | very good herbicidal activity | good and in most cases very good herbicidal activity | good and in most cases very good herbicidal activity |
| CC(COCc1ccccc1)Nc1nc(N)nc(C(C)(C)F)n1 (stereo not shown) [Example 201] | very good herbicidal activity | good and in most cases very good herbicidal activity | good and in most cases very good herbicidal activity |
| CC(CCOc1cccc(F)c1)Nc1nc(N)nc(C(C)(C)F)n1 (stereo not shown) [Example 308] | very good herbicidal activity | good and in most cases very good herbicidal activity | good and in most cases very good herbicidal activity |
| CC(CCOc1ccccc1)Nc1nc(N)nc(C(C)C)n1 (stereo not shown) [Example 336] | very good herbicidal activity | good and in most cases very good herbicidal activity | good and in most cases very good herbicidal activity |
| CCC(CCOc1cccc(Cl)c1)Nc1nc(N)nc(C(C)F)n1 (stereo not shown) [Example 220] | very good herbicidal activity | good and in most cases very good herbicidal activity | good and in most cases very good herbicidal activity |
| CC(CCOc1cccc(F)c1)Nc1nc(N)nc(C(C)C)n1 (stereo not shown) [Example 300] | very good herbicidal activity | good and in most cases very good herbicidal activity | – |
| CCC(CCOc1ccccc1)Nc1nc(N)nc(C(F)(F)C(F)F)n1 (stereo not shown) [Example 394] | very good herbicidal activity | good and in most cases very good herbicidal activity | – |
| CCC(CCCOc1ccccc1)Nc1nc(N)nc(C(C)C)n1 (stereo not shown) [Example 510] | – | good and in most cases very good herbicidal activity | good and in most cases very good herbicidal activity |
| Cc1cccc(OCCCC(Nc2nc(N)nc(C(C)(C)F)n2)C2CC2)c1 (stereo not shown) [Example 582] | – | good and in most cases very good herbicidal activity | good and in most cases very good herbicidal activity |
| Cc1cccc(COCC(C)Nc2nc(N)nc(C(C)(C)F)n2)c1 (stereo not shown) [Example 120] | very good herbicidal activity | good and in most cases very good herbicidal activity | – |
| CC(CCCCOc1ccccc1)Nc1nc(N)nc(C(C)(C)F)n1 (stereo not shown) [Example 609] | – | good and in most cases very good herbicidal activity | good and in most cases very good herbicidal activity |
| CCC(CCCCOc1ccccc1)Nc1nc(N)nc(C(F)(F)C(F)F)n1 (stereo not shown) [Example 605] | – | good and in most cases very good herbicidal activity | good and in most cases very good herbicidal activity |
| Cc1cc(C)cc(CON=CCNc2nc(N)nc(C(C)(C)F)n2)c1 [Example 1236] | – | good and in most cases very good herbicidal activity | good and in most cases very good herbicidal activity |
| Nc1nc(NC(CCCCOc2ccccc2)C2CC2)nc(C(F)(F)C(F)F)n1 (stereo not shown) [Example 645] | – | good and in most cases very good herbicidal activity | good and in most cases very good herbicidal activity |
| Cc1cc(C)cc(CON=CCNc2nc(N)nc(C(C)F)n2)c1 (stereo not shown) [Example 1234] | – | good and in most cases very good herbicidal activity | good and in most cases very good herbicidal activity |
| CC(C)(F)c1nc(N)nc(NCC=NOCc2ccccc2)n1 [Example 1252] | – | good and in most cases very good herbicidal activity | good and in most cases very good herbicidal activity |
| CCC(CCCCOc1ccccc1)Nc1nc(N)nc(C(C)(C)F)n1 (stereo not shown) [Example 598] | – | good and in most cases very good herbicidal activity | good and in most cases very good herbicidal activity |
| CC(C)(F)c1nc(N)nc(NC(CCCCOc2ccccc2)C2CC2)n1 (stereo not shown) [Example 636] | – | good and in most cases very good herbicidal activity | good and in most cases very good herbicidal activity |
| CCC(COCCOc1ccccc1)Nc1nc(N)nc(C(C)(C)F)n1 (stereo not shown) [Example 1344] | – | good and in most cases very good herbicidal activity | good and in most cases very good herbicidal activity |
| Cc1cccc(OCCCC(C)Nc2nc(N)nc(C(C)(C)F)n2)c1 (stereo not shown) [Example 502] | – | good and in most cases very good herbicidal activity | good and in most cases very good herbicidal activity |
| CC(F)c1nc(N)nc(NC2CCCCC2COc2ccccc2)n1 (stereo not shown) [Example 870] | – | good and in most cases very good herbicidal activity | good and in most cases very good herbicidal activity |
| CC(C)(F)c1nc(N)nc(NC(CCCOc2ccccc2)C2CC2)n1 (stereo not shown) [Example 528] | – | good and in most cases very good herbicidal activity | good and in most cases very good herbicidal activity |
| Cc1cccc(CNC(=O)C(C)Nc2nc(N)nc(C(C)(C)F)n2)c1 (stereo not shown) [Example 926] | – | good and in most cases very good herbicidal activity | good and in most cases very good herbicidal activity |
| CCC(COCCOc1ccccc1)Nc1nc(N)nc(C(C)C)n1 (stereo not shown) [Example 1345] | – | good and in most cases very good herbicidal activity | good and in most cases very good herbicidal activity |
